For data set [1], the system named is Zebrafish juveniles. The data set can be described thus: In vivo labelling of Zebrafish juveniles with probe for biological specimen. Further details: key to Staining property: +++: stained; −: no stained; key to Fluorescence sensitivity: +++: strongly observed; ++: moderately observed; +: weakly observed; −: no stained. The settings on record: 1 hour; for Site(s) to be labelled: 10 ng/mL in water, stereoscopic microscope; for Fluorescence sensitivity / Staining property: 10 ng/mL; for Fluorescence sensitivity: fluorescence intensity visually evaluated; for Staining property: visually evaluated. An outline of the steps: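 Five zebrafish juveniles were immersed in distilled water containing staining compound at 10 ng/mL (DMSO solution) for 1 hour. They were then washed three times with Egg Water, immobilised in 3% methylcellulose and imaged by stereomicroscope. Staining and fluorescence intensity were scored visually on a +++ to − scale.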

Data set [2] in a line: Storage stability of staining compound solution in DMSO. The settings on record: 10 ng/mL in DMSO, closed glass container, normal temperature, 1 month; rate of change of absorbance and fluorescence intensity. The data set is classed as physicochemical. An outline of the steps:
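Compounds held as 10 ng/mL DMSO solutions in closed glass containers at normal temperature for 1 month. Rates of change in absorbance and fluorescence intensity at a given wavelength versus start were scored: +++ <5%, ++ 5–15%, − >15%.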

Data set [3] is described as follows: Excitation and fluorescence emission wavelength measurement. The data set is classed as physicochemical. Further details: Stokes shift (λem − λex): unit not given here. The settings on record: aqueous solution: 10 mg/mL solution in DMSO diluted 500-fold with purified water. The protocol: It should be noted that the excitation wavelength and the fluorescence emission wavelength of the staining compound were determined by measuring an aqueous solution, which had been obtained by diluting 500-fold a 10 mg/mL solution of the staining compound in DMSO with purified water, with a fluorescence spectrophotometer FL 4500 manufactured by Hitachi High-Technologies Corporation.

`CCN1C(=O)/C(=c2/s/c(=C/c3ccc4c(c3)C3CCCC3N4c3ccc(C=C(c4ccccc4)c4ccccc4)cc3)c(=O)n2CC(=O)O)SC1=S` (stereo not drawn) [Dye 102]: in data set [1], the “Site(s) to be labelled” value is “gastrointestinal tract”, the Fluorescence sensitivity entry is listed as “+++” and the Staining property entry is given as “+++”. Further, the Storage stability result in data set [2] was “+++ (rates of change of the absorbance and the fluorescence intensity are less than 5%, and thus, the storage stability is highly excellent)”. Moreover, in data set [3], the Excitation wavelength λex was determined as 551 nm, the Fluorescence emission wavelength λem was 673 nm and the “Stokes shift (λem − λex)” value is reported as 122.
As for `CCN1C(=O)/C(=c2\s/c(=C/c3ccc4c(c3)C3CCCC3N4c3ccc(C=C(c4ccccc4)c4ccccc4)cc3)c(=O)n2CC(=O)O)SC1=S` (stereo not drawn) [Dye 103], in data set [1], the “Site(s) to be labelled” value is reported as “gastrointestinal tract”, the Fluorescence sensitivity entry is “+++” and the Staining property result is reported as “+++”. The Storage stability result in data set [2] is “+++ (rates of change of the absorbance and the fluorescence intensity are less than 5%, and thus, the storage stability is highly excellent)”. For the same molecule, in data set [3], the Excitation wavelength λex is 567 nm, the Fluorescence emission wavelength λem was 702 nm and the “Stokes shift (λem − λex)” value was found to be 135.
Regarding `N#C/C(=C\c1ccc2c(c1)C1CCCC1N2c1ccccc1)C(=O)O` (stereo not drawn) [Dye 105], in data set [1], the “Site(s) to be labelled” value is “liver and gastrointestinal tract”; the Fluorescence sensitivity result is reported as “++”; the Staining property entry is listed as “+++”. Further, in data set [2], the Storage stability entry was “+++ (rates of change of the absorbance and the fluorescence intensity are less than 5%, and thus, the storage stability is highly excellent)”. Moreover, in data set [3], the Excitation wavelength λex was determined as 451 nm, the Fluorescence emission wavelength λem was determined as 530 nm and the “Stokes shift (λem − λex)” value worked out at 79.
As for `N#C/C(=C\c1ccc2c(c1)C1CCCC1N2c1ccc(C=C(c2ccccc2)c2ccccc2)cc1)C(=O)O` (stereo not drawn) [Dye 108], in data set [1], the Fluorescence sensitivity result is reported as “+++” and the Staining property entry is listed as “+++”. Further, in data set [2], the Storage stability result was “+++ (rates of change of the absorbance and the fluorescence intensity are less than 5%, and thus, the storage stability is highly excellent)”. Also, in data set [3], the Excitation wavelength λex is 479 nm, the Fluorescence emission wavelength λem came out at 600 nm and the “Stokes shift (λem − λex)” value worked out at 121.
Take `CCN1c2ccc(/C=C3/SC(=S)N(CC(=O)O)C3=O)cc2C2CCCC21` (stereo not drawn) [Dye 109]: in data set [1], the “Site(s) to be labelled” value is “liver and gastrointestinal tract”; the Fluorescence sensitivity entry is on record as “+++”; the Staining property result is reported as “+++”. Besides, the Storage stability entry in data set [2] is “+++ (rates of change of the absorbance and the fluorescence intensity are less than 5%, and thus, the storage stability is highly excellent)”. In data set [3], the Excitation wavelength λex is 440 nm, the Fluorescence emission wavelength λem was 600 nm and the “Stokes shift (λem − λex)” value is recorded as 160.
On to `CCN1C(=O)/C(=c2/s/c(=C/c3ccc4c(c3)C3CCCC3N4CC)c(=O)n2CC(=O)O)SC1=S` (stereo not drawn) [Dye 110], for which, in data set [1], the “Site(s) to be labelled” value is “blood vessel”, the Fluorescence sensitivity entry is given as “+++” and the Staining property entry is on record as “+++”. Moreover, the Storage stability result in data set [2] was “+++ (rates of change of the absorbance and the fluorescence intensity are less than 5%, and thus, the storage stability is highly excellent)”. In data set [3], the Excitation wavelength λex came to 623 nm, the Fluorescence emission wavelength λem came to 671 nm and the “Stokes shift (λem − λex)” value stood at 48.
Regarding `CSc1cccc(N2c3ccc(/C=C4/SC(=S)N(CC(=O)O)C4=O)cc3C3CCCC32)c1` (stereo not drawn) [Dye 115], in data set [1], the “Site(s) to be labelled” value was “blood vessel, gallbladder, and gastrointestinal”; the Fluorescence sensitivity entry is “+++”; the Staining property result is recorded as “+++”. The Storage stability result in data set [2] is “+++ (rates of change of the absorbance and the fluorescence intensity are less than 5%, and thus, the storage stability is highly excellent)”. In data set [3], the Excitation wavelength λex came out at 520 nm, the Fluorescence emission wavelength λem was found to be 640 nm and the “Stokes shift (λem − λex)” value amounted to 120.
As to `O=C(O)CN1C(=O)/C(=C\c2cc(Br)c3c(c2)C2CCCC2N3Cc2ccccc2)SC1=S` (stereo not drawn) [Dye 116], in data set [1], the “Site(s) to be labelled” value is “blood vessel, gallbladder, and gastrointestinal”; the Fluorescence sensitivity entry is on record as “++”; the Staining property result is reported as “+++”. Further, the Storage stability entry in data set [2] is “+++ (rates of change of the absorbance and the fluorescence intensity are less than 5%, and thus, the storage stability is highly excellent)”. For the same molecule, in data set [3], the Excitation wavelength λex was found to be 486 nm, the Fluorescence emission wavelength λem worked out at 606 nm and the “Stokes shift (λem − λex)” value is 120.
For `CCN1c2ccc(/C=C3/SC(=S)N(CCC(=O)O)C3=O)cc2C2CCCC21` (stereo not drawn) [Dye 123], in data set [1], the “Site(s) to be labelled” value was “gallbladder and gastrointestinal tract”; the Fluorescence sensitivity result was “+++”; the Staining property result was “+++”. Further, the Storage stability entry in data set [2] is “+++ (rates of change of the absorbance and the fluorescence intensity are less than 5%, and thus, the storage stability is highly excellent)”. In addition, in data set [3], the Excitation wavelength λex was found to be 564 nm, the Fluorescence emission wavelength λem is 651 nm and the “Stokes shift (λem − λex)” value is 87.
For `CCN1c2ccc(/C=C/c3sc4ccccc4[n+]3CC(=O)O)cc2C2CCCC21` (stereo not drawn) [Dye 124], in data set [1], the “Site(s) to be labelled” value is “nose”, the Fluorescence sensitivity result is listed as “+++” and the Staining property entry is on record as “+++”. In addition, the Storage stability entry in data set [2] is “+++ (rates of change of the absorbance and the fluorescence intensity are less than 5%, and thus, the storage stability is highly excellent)”. For the same molecule, in data set [3], the Excitation wavelength λex is 605 nm, the Fluorescence emission wavelength λem came to 618 nm and the “Stokes shift (λem − λex)” value was found to be 13.
For `COc1ccc(N2c3ccc(/C=C4/SC(=S)N(CCC(=O)O)C4=O)cc3C3CCCC32)cc1` (stereo not drawn) [Dye 127], in data set [1], the “Site(s) to be labelled” value was “blood vessel, liver, and gastrointestinal tract”; the Fluorescence sensitivity result is “+++”; the Staining property result is on record as “+++”. Further, in data set [2], the Storage stability result is “+++ (rates of change of the absorbance and the fluorescence intensity are less than 5%, and thus, the storage stability is highly excellent)”. In data set [3], the Excitation wavelength λex was determined as 564 nm, the Fluorescence emission wavelength λem was 651 nm and the “Stokes shift (λem − λex)” value is on record as 87.
On to `COc1ccc(N2c3ccc(/C=C4\C(=O)N(c5ccccc5)N=C4C(=O)O)cc3C3CCCC32)cc1` (stereo not drawn) [Dye 128], for which, in data set [1], the “Site(s) to be labelled” value was “blood vessel, liver, and gastrointestinal tract”; the Fluorescence sensitivity result was “++”; the Staining property entry is recorded as “+++”. Besides, the Storage stability result in data set [2] is “+++ (rates of change of the absorbance and the fluorescence intensity are less than 5%, and thus, the storage stability is highly excellent)”. Moreover, in data set [3], the Excitation wavelength λex was 530 nm, the Fluorescence emission wavelength λem was 690 nm and the “Stokes shift (λem − λex)” value is listed as 160.
Consider `O=C(O)CCN1C(=O)/C(=C\c2ccc3c(c2)C2CCCC2N3c2ccccc2)SC1=S` (stereo not drawn) [Dye 129], for which, in data set [1], the “Site(s) to be labelled” value was “blood vessel, gallbladder, and gastrointestinal”; the Fluorescence sensitivity result is “+++”; the Staining property entry is reported as “+++”. The Storage stability result in data set [2] is “+++ (rates of change of the absorbance and the fluorescence intensity are less than 5%, and thus, the storage stability is highly excellent)”. Besides, in data set [3], the Excitation wavelength λex amounted to 522 nm, the Fluorescence emission wavelength λem is 611 nm and the “Stokes shift (λem − λex)” value came out at 89.
As to `O=C(O)CCN1C(=O)/C(=C\c2ccc3c(c2)C2CCCC2N3c2ccccc2)SC1=S` (stereo not drawn) [Dye 130], in data set [1], the “Site(s) to be labelled” value is “blood vessel, liver, and gastrointestinal tract”; the Fluorescence sensitivity result was “+++”; the Staining property result is “+++”. For the same molecule, the Storage stability result in data set [2] is “+++ (rates of change of the absorbance and the fluorescence intensity are less than 5%, and thus, the storage stability is highly excellent)”. In data set [3], the Excitation wavelength λex came out at 541 nm, the Fluorescence emission wavelength λem is 619 nm and the “Stokes shift (λem − λex)” value stood at 78.
For `COc1ccc(N2c3ccc(/C=C(/C#N)C(=O)O)cc3C3CCCC32)cc1` (stereo not drawn) [Dye 131], in data set [1], the “Site(s) to be labelled” value was “liver and gastrointestinal tract”; the Fluorescence sensitivity entry was “+++”; the Staining property entry is recorded as “+++”. Moreover, the Storage stability result in data set [2] was “+++ (rates of change of the absorbance and the fluorescence intensity are less than 5%, and thus, the storage stability is highly excellent)”. Besides, in data set [3], the Excitation wavelength λex turned out to be 440 nm, the Fluorescence emission wavelength λem turned out to be 580 nm and the “Stokes shift (λem − λex)” value worked out at 140.
Turning to `C=CCN1C(=O)/C(=c2\s/c(=C/c3ccc4c(c3)C3CCCC3N4c3ccc(OC)cc3)c(=O)n2CC(=O)O)SC1=S` (stereo not drawn) [Dye 132], in data set [1], the “Site(s) to be labelled” value is recorded as “blood vessel”, the Fluorescence sensitivity entry is recorded as “+++” and the Staining property entry is “+++”. Also, the Storage stability entry in data set [2] was “+++ (rates of change of the absorbance and the fluorescence intensity are less than 5%, and thus, the storage stability is highly excellent)”. Moreover, in data set [3], the Excitation wavelength λex was determined as 530 nm, the Fluorescence emission wavelength λem was 680 nm and the “Stokes shift (λem − λex)” value was determined as 150.
